In patent publication US20060293388A1, “Pomolic acid, its isomers, derivatives and their uses, pharmaceutical composition, method to prepare the pharmaceutical composition and method for treating multidrug resistant tumours” (UNIVERSIDADE FEDERAL DO RIO DE JANEIRO, priority 2003, published 2006):

Tests used:
K562 = assay: Growth/survival of K562 cells under vincristine and efflux pump modulators; format: cell-based
Lucena 1 = assay: Growth/survival of Lucena 1 cells under vincristine and efflux pump modulators; format: cell-based
Description: A possible reverser activity of pomolic acid was evaluated by testing its effect over Lucena 1 cell line, that over expresses P glycoprotein (Pgp).

K562 cells = assay: DNA fragmentation (apoptosis induction) by propidium iodide flow cytometry; format: cell-based; settings: 18 h, mean ± SD of 3 experiments
Description: The effect of pomolic acid over DNA fragmentation was studied through the analysis of the cell cycle by flow cytometry. For this 90 μl of cells (2.5×10^5 cells/well) will be distributed in 96 well plates to which it will be added 10 μl of medium, DMSO or the drugs under test (10, 25, 50 and 100 μg/ml). After the defined period of time the cells will be harvested and spun down at 240 g for 5 min. The pellet will be resuspended in 300 μl of a HFS solution (HFS: 0.1% of Triton x-100, 0.1% of sodium citrate and 50 μg/ml of propidium iodide) and incubated at 4° C. for 1 h, in the absence of light. The samples will be read in a flow cytometer (Becton and Dikinson) using the FL2 channel.
The K562 cells were treated with 10, 25, 50 and 100 μg/ml of pomolic acid for 18 h, lysed by HFS treatment (that contains propidium iodide) and DNA fragmentation was measured by FACS (flow cytometry). The values represent the mean±SD of three independent experiments.

leukaemic cell line K562 = assay: Inhibition of cellular proliferation, 3H-thymidine incorporation, K562; format: cell-based; settings: 1, 10 and 100 μg/ml, 48 hours, FIG. 1, dose-dependent
Description: FIG. 1 describes the inhibition of proliferation of the leukaemic cell line K562 by pomolic acid. […] The values represent the mean±standard error of three independent experiments. The inhibition of cellular proliferation was measured through the incorporation of radioactive thimidine (3H-TdR). For this, 180 μl of the cell suspensions are delivered in wells of a 96 wells culture microtiter plate, 2×10^4 cells/well, followed by incubation in a CO2 incubator, at 37° C. for 24 h. After this period, 20 μl of RPMI (control) or the drug to be tested at the concentrations of 100 μg/ml, 50 μg/ml, 25 μg/ml, 10 μg/ml and 1 μg/ml, are added to each group of four wells. Some wells, to be used as controls, receive 20 μl of DMSO in the same concentrations carried by the drugs. Eight hours before the end of the culture, the plate received a pulse of radioactive thymidine (1 μCi/well) and radioactivity was measured in a β counter. The percentage of inhibition was calculated taking as a reference cell growth in the presence of DMSO.

[1] = tested on: resistant leukaemia cell line Lucena 1; assay: Inhibition of cellular proliferation, 3H-thymidine incorporation, Lucena 1; format: cell-based
Description: The values represent the mean±standard error of three independent experiments. […] The values represent the mean±standard error of three independent experiments. The inhibition of cellular proliferation was measured through the incorporation of radioactive thimidine (3H-TdR). For this, 180 μl of the cell suspensions are delivered in wells of a 96 wells culture microtiter plate, 2×10^4 cells/well, followed by incubation in a CO2 incubator, at 37° C. for 24 h. After this period, 20 μl of RPMI (control) or the drug to be tested at the concentrations of 100 μg/ml, 50 μg/ml, 25 μg/ml, 10 μg/ml and 1 μg/ml, are added to each group of four wells. Some wells, to be used as controls, receive 20 μl of DMSO in the same concentrations carried by the drugs. Eight hours before the end of the culture, the plate received a pulse of radioactive thymidine (1 μCi/well) and radioactivity was measured in a β counter. The percentage of inhibition was calculated taking as a reference cell growth in the presence of DMSO. […] The experimental design was the same one as described in example 1.

HL-60 cells = assay: Cytotoxicity, MTT method, HL-60; format: cell-based; settings: 1-100 μg/ml, 48 hours, FIG. 5
Description: HL-60 cells were treated with 1, 5, 10, 25, 50 and 100 μg/ml of pomolic acid for 48 hours. The values represent the mean±standard error of three independent experiments.
(§1) The evaluation of the capacity of pomolic acid, its isomers and derivatives of killing tumor cells will be performed in vitro by the MTT method. The MTT method (3-4,5-dimethylthiazol-2yl)-2,5-diphenyltetrazolium bromide), that is based on the reduction of this compound to Formazam by the enzyme NADH dehydrogenase, Mosmann 1983, allows the quantification of the number of viable cells after treatment. For this, cells from the different cell lines will be processed as described above, distributed into plates and treated with the drug desired concentrations (1, 5, 10, 25, 50 or 100 μg/ml) or DMSO. After 48 h, 20 μl of MTT (5 mg/ml) will be added to each well and the plate will be incubated for a further 4 h in an incubator at 37° C. Following centrifugation, the formazan crystals will be dissolved with DMSO (200 μl/well) and the reading of the absorbance will be made in an ELISA reader at 570 nm wavelength. The percentage of inhibition of cellular viability will be calculated using as reference cells treated with DMSO.

CaCo-2 cells = assay: Cytotoxicity, MTT method, CaCo-2; format: cell-based; settings: 1-100 μg/ml, 48 h, FIGS. 6 and 8
Description: Caco-2 cells were treated with 1, 5, 10, 25, 50 and 100 μg/ml of pomolic acid for 48 hours. The values represent the mean±standard error of three independent experiments.
as §1
(§2) For this 180 μl of the cell suspension (CaCo-2 or MA104) will be delivered to wells in a 96 wells microtiter plate, 2×10^4 cells/well, and the plate incubated in a CO2 incubator at 37° C. for 24 h. […]

MA104 cells = assay: Cytotoxicity, MTT method, MA104; format: cell-based, monkey; settings: 1-100 μg/ml, 48 h, FIGS. 7 and 8
Description: Ma104 cells were treated with 1, 5, 10, 25, 50 and 100 μg/ml of pomolic acid for 48 hours. The values represent the mean±standard error of three independent experiments.
as §1, §2

A549 (lung cancer) = assay: Cytotoxicity, A549; format: cell-based
Text: as §1
(§3) Pomolic's acid activity was evaluated on cells sensitive to chemotherapeutic agents, such as leukaemic lines (K562 and HL-60), of lung cancer (A549) and throat (HEp-2), and on multidrug resistant of leukaemic origin (Lucena 1), of colon cancer (CaCo-2) and of monkey kidney (MA104). […]

HEp-2 (throat cancer) = assay: Cytotoxicity, HEp-2; format: cell-based
Text: as §1, §3

CC[C@]1(O)C[C@H]2CN(CCc3c([nH]c4ccccc34)[C@@](C(=O)OC)(c3cc4c(cc3OC)N(C=O)[C@H]3[C@@](O)(C(=O)OC)[C@H](OC(C)=O)[C@]5(CC)C=CCN6CC[C@]43[C@@H]65)C2)C1 [VCR, vincristine]
percentage of survival in relation to the untreated control, K562 (K562; Table 2, 3.75 nM): 76 ± 7.8% | percentage of survival in relation to the untreated control, K562 (K562; Table 2, 7.5 nM): 70.1 ± 11.8% | percentage of survival in relation to the untreated control, K562 (K562; Table 2, 15 nM): 29.7 ± 7.7% | percentage of survival in relation to the untreated control, K562 (K562; Table 2, 30 nM): 10 ± 2.9% | percentage of survival in relation to the untreated control, K562 (K562; Table 2, 60 nM): 4.9 ± 3.1% | percentage of survival, K562 (K562; Table 3, VCR 60 nM): 3.1 ± 1.5% | percentage of survival in relation to the untreated control, Lucena (Lucena 1; Table 2, 3.75 nM): 106.6 ± 3.8% | percentage of survival in relation to the untreated control, Lucena (Lucena 1; Table 2, 7.5 nM): 98.4 ± 1.9% | percentage of survival in relation to the untreated control, Lucena (Lucena 1; Table 2, 15 nM): 97.4 ± 6.3% | percentage of survival in relation to the untreated control, Lucena (Lucena 1; Table 2, 30 nM): 99.5 ± 6.5% | percentage of survival in relation to the untreated control, Lucena (Lucena 1; Table 2, 60 nM): 97.8 ± 3.7% | percentage of survival, Lucena (Lucena 1; Table 3, VCR 60 nM): 105.3 ± 7.3%

C[C@@H]1CC[C@]2(C(=O)O)CC[C@]3(C)C(=CC[C@@H]4[C@@]5(C)CC[C@H](O)C(C)(C)[C@@H]5CC[C@]43C)[C@@H]2[C@]1(C)O [pomolic acid]
Percentage of DNA fragmentation in K562 cells (K562 cells; 10 μg/ml): 4.31 ± 1.21% | Percentage of DNA fragmentation in K562 cells (K562 cells; 25 μg/ml): 13.72 ± 0.52% | Percentage of DNA fragmentation in K562 cells (K562 cells; 50 μg/ml): 29.93 ± 2.74% | Percentage of DNA fragmentation in K562 cells (K562 cells; 100 μg/ml): 74.88 ± 5.69% | inhibition of proliferation of K562 (leukaemic cell line K562): inhibits | inhibition of proliferation of Lucena ([1]; 1, 10 and 100 μg/ml, 48 hours, FIGS. 2 and 3, dose-dependent): inhibits | inhibition of Lucena 1 growth in the presence of vincristine ([1]; FIG. 2, 48 hours): inhibits Lucena's 1 growth in the presence of vincristine | killing of Lucena 1 in the absence of vincristine ([1]; FIG. 3, 48 hours): kills Lucena 1 in the absence of vincristine | Pgp substrate ([1]; concluded from activity on Pgp over-expressing Lucena 1 without vincristine): not a Pgp substrate | cytotoxic activity towards HL-60 (HL-60 cells): shows a cytotoxic activity | cytotoxic activity towards CaCo-2 (CaCo-2 cells): shows a cytotoxic activity | cytotoxic activity towards MA104 (MA104 cells): shows a cytotoxic activity | cytotoxic activity towards A549 (A549 (lung cancer)): shows a cytotoxic activity | cytotoxic activity towards HEp-2 (HEp-2 (throat cancer)): shows a cytotoxic activity
